Experimental data reported in paper PMC11595719, “Design of Ctenophore Ca^2+-Regulated Photoprotein Berovin Capable of Being Converted into Active Protein Under Physiological Conditions: Computational and Experimental Approaches” (Life, 2024).

Tests used:
Test in all cases: Trp fluorescence quenching at […] nm
Assay type in all cases: binding
[1] = target: T1, berovin (apo-berovin, BAwt) (Beroe abyssicola, UniProt H8ZZK1)
T1 construct: gene BA2; monomeric
T1 sequence (H8ZZK1 1-208): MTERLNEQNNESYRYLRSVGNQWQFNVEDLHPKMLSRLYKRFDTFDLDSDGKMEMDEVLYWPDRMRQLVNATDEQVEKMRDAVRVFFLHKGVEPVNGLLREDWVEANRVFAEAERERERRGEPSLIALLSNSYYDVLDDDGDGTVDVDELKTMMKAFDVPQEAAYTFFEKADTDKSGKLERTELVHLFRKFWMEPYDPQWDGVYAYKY

[2] = target: T2, berovin (apo-berovin) (Beroe abyssicola, UniProt H8ZZK1, K90M/N107S/W103F)
T2 construct: gene BA2; monomeric

[3] = target: T3, berovin (apo-berovin, BAwt) (Beroe abyssicola, UniProt H8ZZK1, K90A/N107S)
T3 construct: gene BA2; monomeric

[4] = target: T4, berovin (apo-berovin, BAwt) (Beroe abyssicola, UniProt H8ZZK1, K90M)
T4 construct: gene BA2; monomeric
T4 sequence (H8ZZK1 entry or part of it K90M): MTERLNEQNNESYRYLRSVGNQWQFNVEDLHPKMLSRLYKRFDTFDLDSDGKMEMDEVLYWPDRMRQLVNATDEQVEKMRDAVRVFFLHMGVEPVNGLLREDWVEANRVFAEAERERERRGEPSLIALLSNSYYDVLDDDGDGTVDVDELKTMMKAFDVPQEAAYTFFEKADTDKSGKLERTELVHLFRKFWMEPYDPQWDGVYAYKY

T2 sequence (H8ZZK1 entry or part of it K90M/W103F/N107S): as the sequence (H8ZZK1 entry or part of it K90M) above, with W103F, N107S counted along it
T3 sequence (H8ZZK1 entry or part of it K90A/N107S): as the sequence (H8ZZK1 entry or part of it K90M) above, with M90A, N107S counted along it

Compound: Oc1ccc(Cc2nc3c(Cc4ccccc4)nc(-c4ccc(O)cc4)cn3c2O)cc1 [coelenterazine]
- Kd [1]: 4.72 ± 0.36 µM
- Kd [2]: 6.62 ± 0.54 µM
- Kd [3]: 1.3 ± 0.15 µM
- Kd [4]: 2.61 ± 0.28 µM
